Measured values taken from patent publication EP1089763B1, “AGENTS FOR SPECIFICALLY INHIBITING OSTEOCLASTIC BONE RESORPTION” (Dietsch, Peter, priority 1998, dated 1999).

Tests used:
Osteoklasten [1] = conditions: not told
Carboanhydrase II = Carboanhydrase II (Homo sapiens, UniProt P00918); conditions: fluorescent DNSA-Carboanhydrase II complex, 1:1; read-out: Dissoziationskonstante KD; cited from earlier work
Nierenzellen = assay: Uptake into kidney cells, DNSA fluorescence displacement (Abb. 2); conditions: Nierenzellen with Carboanhydrase II
Description: Das Maximum der Anregung der Fluoreszenz liegt bei einer Wellenlänge von 320 nm, das Maximum der Emission bei 470 nm. Diese Fluoreszenz läßt sich gut von der des ungebundenen DNSA unterscheiden, da diese grün und sehr viel schwächer ist. Sie hat ihr Emissionsmaximum bei 580 nm. Die Carboanhydrase bindet DNSA im stöchiometrischen Verhältnis 1:1.

[2] = molecular target: Isoenzym Carboanhydrase II (Homo sapiens, UniProt P00918); assay: Inhibition constant for carbonic anhydrase II; type: biochemical; conditions: Isoenzym Carboanhydrase II expressed in osteoclasts; read-out: Inhibitorkonstante KI
Erythrozyten = type: cell-based; conditions: not told
Osteoklasten [3] = assay: Bone resorption by osteoclasts settled on dentine slices (cell culture); type: cell-based
Knochenresorption [4] = assay: Strontium excretion and tibia mineral content in strontium-loaded growing rats; type: in vivo, Ratten
Description: Wachsenden Ratten - 6 Wochen alt - wurden sechsmal in Abständen von drei Tagen jeweils 2 mg SrCl2 in physiologischer Kochsalzlösung subkutan injiziert. Die Tiere bauen das Strontium analog dem Calcium in den Knochen ein. Entsprechend der Rate des Knochenumbaus wird das Strontium über Harn und Fäces während eines längeren Zeitraums wieder ausgeschieden. Nach einer 14 tägigen Latenzzeit in der sie eine calciumarme Diät erhielten, wurden ihnen verschiedene Konzentrationen von 1 i.p. apliziert und die Ausscheidung des Strontiums atomabsorptionsspektroskopisch gemessen. Die Abb.
Nach Abschluß des Versuches wurden die Tibiae präpariert und deren Gehalt an Calcium, Strontium und Phosphat bestimmt.

Knochenresorption [5] = assay: Serum calcium after injection of parathormone in rats; type: in vivo, Ratten; conditions: three days after a single dose of 10 mg/kg, Abb. 5
Description: Die Hemmung der Knochenresorption in Ratten, die mit 1 behandelt wurden, kann an der Änderung der Calciumkonzentration im Serum nach Injektion von Parathormon demonstriert werden (Abb. 5).

Knochenresooorption = assay: Ovariectomised rats, osteoporosis model; type: in vivo, Ratten; conditions: several months

membrane permeability (Osteoklasten [1]) | SMILES | Kd (Carboanhydrase II) | uptake into cells (Nierenzellen) | Ki [2] | permeability of the cell membrane (Erythrozyten) | resorption (Osteoklasten [3]; in the presence of osteoclast-activating hormones) | resorption (Osteoklasten [3]; osteoclasts on Dentinplättchen) | Strontiumausscheidung (Knochenresorption [4]; rats, various concentrations i.p., after SrCl2 loading and low-calcium diet, Abb. 3) | Gehalt an Calcium, Strontium und Phosphat (Tibiae) (Knochenresorption [4]; versus control group, at the end of the experiment, Abb. 4) | knochenauflösende Wirkung von Parathormon (Calciumkonzentration im Serum) (Knochenresorption [5]) | Hemmwirkung auf die Knochenresooorption (Knochenresooorption) | Nebenwirkungen (Knochenresooorption)
kann Zellmembranen passieren | CN(C)c1cccc2c(S(N)(=O)=O)cccc12 [DNSA] | 240 nM | – | – | – | – | – | – | – | – | – | –
– | CCOc1ccc2nc(S(N)(=O)=O)sc2c1 [Ethoxzolamid, 6-Ethoxybenzothiaziol-2-sulfonamid, reference compound] | – | aufgenommen | – | – | – | – | – | – | – | – | –
– | NS(=O)(=O)c1ccc(CNC(=S)Nc2ccc(OC3OC(CO)C(O)C(O)C3O)cc2)cc1 [compound 1, N-α-D-Mannopyranosylphenyl-N'-p-amidosulfonylbenzylthioharnstoff] | – | nicht aufgenommen | 800 nM | teilweise für 1 durchlässig | keine Resorption mehr | hören sie auf zu resorbieren | Erniedrigung der Strontiumausscheidung | deutlich höhere Konzentration | vollständig blockiert | Hemmwirkung | keine Nebenwirkungen
